In the CheMixHub ionic liquid set:

Assay: xn = mol fraction of the nth substance listed
Conditions: for electrical conductivity: frequency 0.00293 MHz

CCCC[n+]1ccn(C)c1.[Br-] + N[C@@H](Cc1ccccc1)C(=O)O + O
viscosity [mPa·s], 101.3 kPa
Conditions	293.15 K	298.15 K	303.15 K	308.15 K	313.15 K
x2 = 0, x1 = 0.0007203	–	–	–	–	0.67
x2 = 0.0003641, x1 = 0.00072	1	0.97	0.88	0.77	0.68
x2 = 0.0003648, x1 = 0.001439	0.99	0.9	0.8	0.66	0.59
x2 = 0.0007259, x1 = 0.0007198	1.02	0.98	0.89	0.78	0.69
x2 = 0.0007309, x1 = 0.001438	1	0.91	0.81	0.68	0.6
x2 = 0.001089, x1 = 0.0007195	1.03	0.99	0.91	0.8	0.7
x2 = 0.001097, x1 = 0.001438	1.02	0.92	0.82	0.69	0.61
x2 = 0.00145, x1 = 0.0007192	1.04	1	0.92	0.81	0.72
x2 = 0.001463, x1 = 0.001437	1.03	0.93	0.83	0.7	0.63
x2 = 0.001814, x1 = 0.000719	1.05	1.02	0.93	0.82	0.73
x2 = 0.001827, x1 = 0.001437	1.04	0.95	0.85	0.71	0.64
x2 = 0.002174, x1 = 0.0007187	1.07	1.03	0.95	0.84	0.74
x2 = 0.002193, x1 = 0.001436	1.06	0.96	0.86	0.73	0.65
x2 = 0.002537, x1 = 0.0007185	1.08	1.04	0.96	0.85	0.76
x2 = 0.002556, x1 = 0.001436	1.07	0.97	0.87	0.74	0.67

CC(O)C(C)O (stereo not drawn) + CCCC[N+](C)(C)C.O=S(=O)([N-]S(=O)(=O)C(F)(F)F)C(F)(F)F
101 kPa
Conditions	viscosity [mPa·s]
323.15 K, x1 = 0.557	16.54
323.15 K, x1 = 0.6216	16.03
328.15 K, x1 = 0.557	13.6
333.15 K, x1 = 0.3137	15.23
333.15 K, x1 = 0.4515	13.1
333.15 K, x1 = 0.557	11.67
343.15 K, x1 = 1	6.7

CCCC[n+]1ccn(C)c1.[Br-] + [Cl-].[Li+] + O
298.15 K, 100 kPa
Conditions	viscosity [mPa·s]
x2 = 0, x3 = 0.9487	2.21
x2 = 0.008492, x3 = 0.9402	2.41
x2 = 0.01695, x3 = 0.9318	2.56
x2 = 0.02496, x3 = 0.9237	2.73
x2 = 0.02656, x3 = 0.9221	2.81
x2 = 0.03322, x3 = 0.9155	3
x2 = 0.0408, x3 = 0.9079	3.21

CCCCCCCCCCCCCC[P+](CCCCCC)(CCCCCC)CCCCCC.[c-]1c[nH]nn1 + CCCC[n+]1ccn(C)c1.O=S(=O)([N-]S(=O)(=O)C(F)(F)F)C(F)(F)F
100 kPa
Conditions	viscosity [mPa·s]
278.15 K, x2 = 0.2	2422
283.15 K, x2 = 0.1	1490
283.15 K, x2 = 0.722	481
293.15 K, x2 = 0.301	663
298.15 K, x2 = 0.1	486
298.15 K, x2 = 0.388	428
298.15 K, x2 = 0.9	77
303.15 K, x2 = 0.1	353
303.15 K, x2 = 0.301	339
308.15 K, x2 = 0.2	273
313.15 K, x2 = 0.2	205
313.15 K, x2 = 0.388	174
318.15 K, x2 = 0.2	158
318.15 K, x2 = 0.301	147
318.15 K, x2 = 0.8	50
323.15 K, x2 = 0.301	115

CCCC[NH3+].O=[N+]([O-])[O-] + CC[NH3+].O=[N+]([O-])[O-]
101 kPa
Conditions	electrical conductivity [S/m]	viscosity [mPa·s]
303.15 K, x2 = 0.75	1.68	42.1
308.15 K, x2 = 0.25	0.88	56.1
323.15 K, x2 = 0.25	1.38	33.7
333.15 K, x2 = 0.25	–	25.2
338.15 K, x2 = 0.25	–	22
338.15 K, x2 = 0.75	–	15.5
343.15 K, x2 = 0.25	–	19.4
353.15 K, x2 = 0.25	–	15.4
353.15 K, x2 = 0.5	–	13.3
